The values that follow come from US20230406860A1, “HETEROCYCLIC SPIRO COMPOUNDS AND METHODS OF USE” (AMGEN INC., priority 2020, published 2023).

pIC50: −log10 of the molar value. Like-named read-outs stand apart in the source and are kept apart here.

Test [1] has as its target GDP-bound KRAS protein (aa 1-169), containing both G12C and C118A amino acid substitutions (Homo sapiens, UniProt P01116, C118A/G12C). The test is described as follows: Coupled nucleotide exchange assay (SOS-mediated, AlphaScreen). Type of test: biochemical. How it is done: Coupled Nucleotide Exchange Assay:
For all subsequent steps, DTT was added to the reaction buffer at a final concentration of 1 mM. […] The assay plates were then read on a plate reader measuring luminescence signal. Signal intensity of compound-containing wells were normalized to DMSO control, and data were analyzed using a 4-parameter logistic model to calculate IC50 values.
In general terms: In Alpha technology, singlet oxygen from a donor bead excites a nearby acceptor bead.

Test [2] deals with MIA PaCa-2 (human pancreatic carcinoma) cells. The test is described as follows: Cell viability assay (CellTiter-Glo), MIA PaCa-2. The conditions noted are these: 72 h. Format: cell-based. How it is done:
(§1) MIA PaCa-2 (human pancreatic carcinoma; ATCC CRL-1420) or A549 (human lung carcinoma; ATCC CCL-185) cells were cultured in RPMI 1640 medium containing 10% fetal bovine serum and 1× penicillin/streptomycin/L-glutamine. Cells were seeded in 384-well plates at a density of 1.67E+04 cells/mL and incubated at 37° C., 5% CO2, overnight. Serially-diluted compound or DMSO was added to the cells, and plates were incubated at 37° C., 5% CO2 for 72 h. Cell viability was measured using a CellTiter-Glo® Luminescent Cell Viability Assay kit (Promega) according to the manufacturer's protocol. The luminescence signal of treated samples was normalized to DMSO control, and data were analyzed using a 4-parameter logistic model to calculate IC50 values.
For orientation: In ATP-based viability assays light output follows the ATP content of the culture.

The subject of test [3] is A549 (human lung carcinoma) cells. In words: Cell viability assay (CellTiter-Glo), A549. Type of test: cell-based. The conditions noted are these: 72 h. The method, then:
as §1

Where [4] appears, read: 2 h compound pre-incubation, read-out: Avg 2 h Coupled exchange IC50.
Where [5] appears, read: 20 h compound pre-incubation (values marked * in Table 6), read-out: Avg 20 h Coupled exchange IC50.

Sequence of GDP-bound KRAS protein (aa 1-169), containing both G12C and C118A amino acid substitutions (P01116 1-169 isoform P01116-2 G12C/C118A): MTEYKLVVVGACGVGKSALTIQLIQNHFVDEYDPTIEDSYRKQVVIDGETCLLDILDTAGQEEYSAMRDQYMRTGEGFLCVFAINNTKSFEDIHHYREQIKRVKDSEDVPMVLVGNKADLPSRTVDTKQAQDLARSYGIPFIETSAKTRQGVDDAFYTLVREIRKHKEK

For orientation: IC50 means the point on the concentration scale where inhibition reaches its midpoint. For orientation: pIC50 means the negative decadic logarithm of the IC50, by convention in mol/L. Consider `C=CC(=O)N1CC2(CCN(c3nc4c(c(N[C@@H](CC(=O)NC)c5cccc(C#N)c5)n3)CCCC4)C2)C1` (single isomer, unassigned) [Example 1-21-1], for which the IC50 in test [1] (setting [4]) was 9.085 µM. For the same compound, the values for the pIC50 in test [2] and in test [3] were 4.98 and less than 4.60, respectively.
For `C=CC(=O)N1CC2(CCN(c3nc4c(c(N[C@H](CC(=O)NC)c5cccc(C#N)c5)n3)CCCC4)C2)C1` (single isomer, unassigned) [Example 1-21-2], in test [1] (setting [4]), the concentration for half-maximal inhibition (IC50) worked out at 129.95 µM. For the same compound, the values for the pIC50 in test [2] and in test [3] were 4.85 and less than 4.60, respectively.
In the same order, the values of `C=CC(=O)N1CC2(C[C@H](CO)N(c3nc4c(c(N[C@H](CC(=O)NC)CC(C)C)n3)CCCC4)C2)C1` (single isomer, unassigned) [Example 1-24-1] are 4.58 µM, 5.22 and less than 4.60.
As to `C=CC(=O)N1CC2(C[C@@H](CO)N(c3nc4c(c(N[C@H](CC(=O)NC)CC(C)C)n3)CCCC4)C2)C1` (single isomer, unassigned) [Example 1-24-2], the IC50 in test [1] (setting [4]) came out at 59.1 µM. Moreover, the pIC50 in test [2] and in test [3] was less than 4.60 each time.
`C=CC(=O)N1CC2(CCN(c3nc4c(c(N[C@H](CC(=O)NC)CC(C)C)n3)CCCC4)C2)C1` [Example 1-1, (S)-3-((2-(2-acryloyl-2,6-diazaspiro[3.4]octan-6-yl)-5,6,7,8-tetrahydroquinazolin-4-yl)amino)-N,5-dimethylhexanamide]: the negative logarithm of the IC50 (pIC50) in test [1] (setting [4]) was 6.15; in test [2], 6.05; in test [3], less than 4.60.
For `C=CC(=O)N1CC2(C1)CN(c1nc3c(c(N[C@H](CC(=O)NC)CC(C)C)n1)CCC(C)C3)CC2(F)F` (stereo partly drawn) [Example 1-2, (3S)-3-((2-(8,8-difluoro-2-(2-propenoyl)-2,6-diazaspiro[3.4]octan-6-yl)-7-methyl-5,6,7,8-tetrahydro-4-quinazolinyl)amino)-N,5-dimethylhexanamide], in that order: 7.72, 7.33 and 4.82.
In the same order, the values of `C=CC(=O)N1CC2(CCN(c3nc4c(c(N[C@H](CC(=O)NC)CC(C)C)n3)CCC(C)C4)C2)C1` (stereo partly drawn) [Example 1-3, (3S)-N,5-dimethyl-3-((7-methyl-2-(2-(2-propenoyl)-2,6-diazaspiro[3.4]octan-6-yl)-5,6,7,8-tetrahydro-4-quinazolinyl)amino)hexanamide] are 6.67, 6.66 and 4.49.
Consider `C=CC(=O)N1CC2(CCN(c3nc4c(c(N[C@H](CC(=O)NC)CC(C)C)n3)CCC4)C2)C1` [Example 1-4, (3S)-N,5-dimethyl-3-((2-(2-(2-propenoyl)-2,6-diazaspiro[3.4]octan-6-yl)-6,7-dihydro-5H-cyclopenta[d]pyrimidin-4-yl)amino)hexanamide], for which the pIC50 in test [1] (setting [4]) is 5.63; in test [2] it was 5.59; in test [3] it was less than 5.30.
With `C=CC(=O)N1CC2(CCN(c3nc(N[C@H](CC(=O)NC)CC(C)C)c4ccccc4n3)C2)C1` [Example 1-5, (3S)-N,5-dimethyl-3-((2-(2-(2-propenoyl)-2,6-diazaspiro[3.4]octan-6-yl)-4-quinazolinyl)amino)hexanamide], the pIC50 in test [1] (setting [4]) is 5.96; in test [2] it was 5.91; in test [3], 4.74.
On to `C=CC(=O)N1CC2(CCN(c3cc4ccccc4c(N[C@H](CC(=O)NC)CC(C)C)n3)C2)C1` [Example 1-6, (3S)-N,5-dimethyl-3-((3-(2-(2-propenoyl)-2,6-diazaspiro[3.4]octan-6-yl)-1-isoquinolinyl)amino)hexanamide], for which the values for the pIC50 in test [1] (setting [5]), in test [2] and in test [3] were 6.37, 5.09 and less than 4.60, respectively.
`C=CC(=O)N1CC2(CCN(c3nc(N[C@H](CC(=O)NC)CC(C)C)c4occc4n3)C2)C1` [Example 1-7, (3S)-N,5-dimethyl-3-((2-(2-(2-propenoyl)-2,6-diazaspiro[3.4]octan-6-yl)furo[3,2-d]pyrimidin-4-yl)amino)hexanamide]: the negative-log IC50 (pIC50) was 6.31 in test [1] (setting [5]), 4.24 in test [2] and less than 5.30 in test [3].
`C=CC(=O)N1CC2(CCN(c3nc(N[C@H](CC(=O)NC)CC(C)C)c4c(n3)[C@H](C)CCC4)C2)C1` [Example 1-8, (3S)-N,5-dimethyl-3-(((8R)-8-methyl-2-(2-(2-propenoyl)-2,6-diazaspiro[3.4]octan-6-yl)-5,6,7,8-tetrahydro-4-quinazolinyl)amino)hexanamide]: the negative logarithm of the IC50 (pIC50) in test [1] (setting [4]) was 5.96; in test [2], 6.00; in test [3], less than 5.30.
For `C=CC(=O)N1CC2(CCN(c3nc4c(c(N[C@H](CC(=O)NC)CC(C)C)n3)CN(C(C)=O)C4)C2)C1` [Example 1-9, (3S)-3-((6-acetyl-2-(2-(2-propenoyl)-2,6-diazaspiro[3.4]octan-6-yl)-6,7-dihydro-5H-pyrrolo[3,4-d]pyrimidin-4-yl)amino)-N,5-dimethylhexanamide], the pIC50 in test [1] (setting [5]) was 6.33; in test [2] it was less than 5.30; in test [3], less than 5.30.
Regarding `C=CC(=O)N1CC2(CCN(c3nc(N[C@H](CC(=O)NC)CC(C)C)c4nn(C)cc4n3)C2)C1` [Example 1-10, (3S)-N,5-dimethyl-3-((2-methyl-5-(2-(2-propenoyl)-2,6-diazaspiro[3.4]octan-6-yl)-2H-pyrazolo[4,3-d]pyrimidin-7-yl)amino)hexanamide], the pIC50 in test [1] (setting [4]) was 6.04; in test [2] it was 5.44; in test [3], less than 4.60.
As for `C=CC(=O)N1CC2(CCN(c3nc(N[C@H](CC(=O)NC)CC(C)C)c4ncsc4n3)C2)C1` [Example 1-11, (3S)-N,5-dimethyl-3-((5-(2-(2-propenoyl)-2,6-diazaspiro[3.4]octan-6-yl)[1,3]thiazolo[5,4-d]pyrimidin-7-yl)amino)hexanamide], the pIC50 was 6.40 in test [1] (setting [5]), less than 5.30 in test [2] and less than 5.30 in test [3].
Consider `C=CC(=O)N1CC2(CCN(c3nc4c(c(N[C@H](CC5=NC(C)(C)C(=O)N5)CC(C)C)n3)CCCC4)C2)C1` [Example 1-12, 5,5-dimethyl-2-((2S)-4-methyl-2-((2-(2-(2-propenoyl)-2,6-diazaspiro[3.4]octan-6-yl)-5,6,7,8-tetrahydro-4-quinazolinyl)amino)pentyl)-3,5-dihydro-4H-imidazol-4-one], for which the pIC50 is 5.41 in test [1] (setting [4]), 4.98 in test [2] and less than 4.60 in test [3].
With `C=CC(=O)N1CC2(CCN(c3nc4c(c(N[C@H](CC(=O)NC)CC(C)C)n3)CCC(C)(C)C4)C2)C1` [Example 1-29, (3S)-3-((7,7-dimethyl-2-(2-(2-propenoyl)-2,6-diazaspiro[3.4]octan-6-yl)-5,6,7,8-tetrahydro-4-quinazolinyl)amino)-N,5-dimethylhexanamide], the results for the pIC50 in test [2] and in test [3] were 7.51 and less than 4.60, respectively.
Turning to `C=CC(=O)N1CC2(CCN(c3nc4c(c(N[C@@H](CC(C)C)Cn5ccnn5)n3)CCC(C)(C)C4)C2)C1` [Example 1-47, 1-(6-(7,7-dimethyl-4-(((2S)-4-methyl-1-(1H-1,2,3-triazol-1-yl)-2-pentanyl)amino)-5,6,7,8-tetrahydro-2H-quinazolinyl)-2,6-diazaspiro[3.4]octan-2-yl)-2-propen-1-one], the pIC50 in test [2] was 6.31; in test [3], 4.85.
